{"source": "patent US20190160030A1", "about": "“CARBOXYLIC ACIDS FOR EARLY CHILDHOOD APPLICATION” (PROPONENT BIOTECH GMBH, priority 2016, published 2019)", "key": {"[1]": {"tested_on": "BALBC/J neonates epicutaneously sensitized with house dust mite (HDM)", "assay": "Neonatal topical treatment in the epicutaneous HDM atopic dermatitis model: skin inflammatory score, TEWL, skin histology", "type": "in vivo, mouse", "procedure": "A) Skin inflammatory scoring (0—Normal; 1—Mild inflammation, 2—Moderate inflammation; 3—Marked inflammation; 4—Severe inflammation; 5—Very severe inflammation) was performed (blinded for the experimental conditions) on 8-10 representative images of haematoxylin and eosin stained paraffin embedded skin tissue sections (4 μM).\nB) Transepidermal water loss (TEWL) measurement was performed 24 hours after the end of the third epicutaneous HDM sensitization round. Three measurements were taken per mouse. n=5 mice per group.\nSkin tissue from the sensitized area was fixed in formalin, embedded in paraffin and 4 μM tissue sections were stained with haematoxylin and eosin. Representative images from vehicle treated controls (left) or sodium propionate treated mice (right) are shown at a 10× magnification. Inserts are shown at a 20× magnification.\nFirst generation BALBC/J (Charles River) neonates were topically treated on dorsal skin with 5 mg sodium propionate (50 μl of a 100 mg/ml Sodium propionate solution; Sodium propionate (Sigma Aldrich; catalogue number P5436) was dissolved in 0.9% NaCl and sterile filtered) or vehicle control (0.9% NaCl; Laboratorium G. Bichsel AG; catalogue number 1000096) on day 4 and 6 after birth. Ten days post birth epicutaneous sensitization with 15 μg house dust mite (HDM) (Greer Laboratories Inc.; catalogue number B84) was started. Epicutaneous sensitization was performed by application of gauze (Dermaplast; catalogue number 214 010) soaked in 15 μg HDM on the dorsal skin of the neonate, which was secured by a bioclusive dressing (Systagenix; catalogue number 2463) and covered with adhesive tape (Mölnlycke Health Care; catalogue number 310500) to prevent removal of the gauze and consequently HDM ingestion. The sensitization was performed for three consecutive weeks, each week consisting of five consecutive days of sensitization, with a change of the gauze on day 3 and removal of the gauze on day 5, followed by a 2 day recovery period. […]"}, "[2]": {"tested_on": "BALBC/J neonates sensitized and intranasally challenged with house dust mite (HDM)", "assay": "Lung analysis after intranasal HDM challenge in the same model: BAL cell counts, PAS mucus staining", "type": "in vivo, mouse", "conditions": "topical 5 mg sodium propionate vs vehicle, n=5 mice per group", "procedure": "A) Airway eosinophil counts and B) airway neutrophils counts were determined in cytospins from bronchoalveolar lavage fluid collected at 72 hours after the last intranasal challenge.\nC) Mucus production in the lung was quantified as the frequency of fully periodic acid-Schiff (PAS) stained cells in representative images of small and medium airways from PAS stained paraffin embedded lung tissue sections (4 μM). n=5 mice per group.\nFirst generation BALBC/J (Charles River) neonates were topically treated on dorsal skin with 5 mg sodium propionate (50 μl of a 100 mg/ml Sodium propionate solution; Sodium propionate (Sigma Aldrich; catalogue number P5436) was dissolved in 0.9% NaCl and sterile filtered) or vehicle control (0.9% NaCl; Laboratorium G. Bichsel AG; catalogue number 1000096) on day 4 and 6 after birth. Ten days post birth epicutaneous sensitization with 15 μg house dust mite (HDM) (Greer Laboratories Inc.; catalogue number B84) was started. […]\nMouse tracheas were canulated and bronchoalveolar lavage (BAL) was performed with 500 μl PBS 0.2% BSA solution. Total BAL cell counts were determined using a Coulter Counter, and differential cell counts were determined on cytospin preparations of the BAL fluid. […]"}, "[3]": {"tested_on": "Nickel allergen contact hypersensitivity", "assay": "Contact hypersensitivity to Nickel allergen, topical propionate solution, clinical score of skin lesion", "type": "in vivo, human", "conditions": "topical propionate solution subsequent to exposure to Nickel; worded as 'can be'", "text": "In this regard, human volunteers can be topically administered a propionate solution subsequent to exposure to a known allergen (e. g. Nickel); see Example 2. Symptoms of dermatitis and/or eczema can be observed, i.e. an allergic reaction. […] Accordingly, the compositions and methods of the invention as described herein in the various embodiments or aspects are, inter alia, effective following contact hypersensitivity to nickel. In addition, compositions and methods of the invention are effective in improving skin repair following an abrasion. Overall, treatment of skin with a solution containing propionate is effective at dampening skin diseases such as dermatitis and/or eczema and reducing redness of the skin, skin lesions, wrinkles, impurities and/or irregularities of the skin by improving the barrier function of the skin. […] The composition of the invention as described herein in the various embodiments or aspects can, inter alia, be applied topically and is relevant for the healthcare and cosmetics industry.\nAllergic hypersensitivity can be induced through contact sensitization with Nickel allergen over a 12 hour time period. […] Clinical score of skin lesion can be determined by using protocols known in the art."}}, "data": [{"compound": "CCC(=O)[O-].[Na+]", "note": "[propionate, Sodium propionate]", "values": [{"measurement": "allergic dermatitis skin inflammation", "setting": "[1]; topical 5 mg sodium propionate vs vehicle (0.9% NaCl), skin inflammatory scoring 0-5 on H&E skin sections, n=5 mice per group", "value": "protects against"}, {"measurement": "epidermal thickening", "setting": "[1]; topical 5 mg sodium propionate vs vehicle, H&E stained skin sections from sensitized area", "value": "protects against"}, {"measurement": "disruption of skin barrier (transepidermal water loss, TEWL)", "setting": "[1]; topical 5 mg sodium propionate vs vehicle, TEWL 24 hours after end of third epicutaneous HDM sensitization round, n=5 mice per group", "value": "protects against"}, {"measurement": "allergic airway inflammation (airway eosinophil and neutrophil counts)", "setting": "[2]; BAL fluid cytospins 72 hours after last intranasal challenge", "value": "protects against"}, {"measurement": "mucus production in the lung (frequency of PAS stained cells)", "setting": "[2]; PAS stained lung sections, small and medium airways", "value": "protects against"}, {"measurement": "clinical score (symptoms of dermatitis and/or eczema)", "setting": "[3]", "value": "significantly reduced"}]}]}
